The values that follow come from patent US10118901B2 (priority 2013, dated 2018).

One data set relates to NCI-H226. Description: NCI-60 screen at 10 μM: NCI-H226. The note with it: NSCLC NCI-H226; 10 μM single dose; 48 hrs. It is filed as cell-based, human. The method, then:
(§1) NL-101 and CY-102 was sent to U.S. National Cancer Institute (NCI) for NCI 60-cell line screening using a single compound dose (10 μM).
(§2) The human tumor cell lines of the cancer screening panel were grown in RPMI 1640 medium containing 5% fetal bovine serum (5% FBS) and 2 mM L-glutamine. For a typical screening experiment, cells were inoculated into 96-well microtiter plates in 100 μL, at plating densities ranging from 5,000 to 40,000 cells/well depending on the doubling time of individual cell lines. After cell inoculation, the microtiter plates were incubated at 37° C., 5% CO2, 95% air, and 100% relative humidity for 24 h prior to addition of experimental compounds. […]
(§3) Following drug addition, the plates were incubated for an additional 48 hrs at 37° C., 5% CO2, 95% air, and 100% relative humidity. […] Bound stain was subsequently solubilized with 10 mM trizma base, and the absorbance was read on an automated plate reader at a wavelength of 515 nm. […]
(§4) Using the seven absorbance measurements [time zero, (Tz), control growth, (C), and test growth in the presence of drug at the 10 μM concentration levels (Ti)], percentage growth was calculated at each of the drug concentrations levels. Percentage growth inhibition was calculated as: [(Ti−Tz)/(C−Tz)]×100 for which Ti>/=Tz or [(Ti−Tz)/Tz]×100 for which Ti<Tz.

A short description of a further data set: Water solubility. It is filed as physicochemical. Conditions: thermodynamic from solid; distilled water at room temperature, visual inspection. The method, then:
To measure water solubility, to approximately 10 mg of a sample in a tube-stoppered 10 mL graduated cylinder, increasing volumes of distilled water at room temperature were added according to the steps shown in the table below:
After each addition of water to give the indicated total volume, the mixture was vortexed or sonicated for 1 min and was visually inspected for any undissolved parts of the sample. If, after a total of 10 mL of water had been added (step 5), the sample or parts of it remained undissolved, the contents of the measuring cylinder was transferred to a 100 mL measuring cylinder which was then filled up with water up to 100 mL (20 ml, 25 ml, 50 ml, 100 ml) and shaken. The approximate solubility was given in the table under that volume of added water in which complete dissolution of the sample occurred. If the substance was still apparently insoluble, further dilution was undertaken to ascertain whether the column elution or the flask solubility method should be used.

The test system of another data set is OVCAR-4. Description: NCI-60 screen at 10 μM: OVCAR-4. Type of data set: cell-based, human. The note with it: Ovarian Cancer OVCAR-4; 10 μM single dose; 48 hrs. Here is the method: as §1, §2, §3, §4
Data set [1] addresses hERG (Human Ether-á-go-go-Related-Gene) (Homo sapiens, UniProt Q12809).
The next data set concerns NCI-H322M. Description: NCI-60 screen at 10 μM: NCI-H322M. Conditions: NSCLC NCI-H322M; 10 μM single dose; 48 hrs. It is filed as cell-based, human. Here is the method: as §1, §2, §3, §4
For data set [2], the target named is HDAC enzymes (Hela Nuclear Extract). Type of data set: biochemical.
For a further data set, the system named is PC-3. Description: NCI-60 screen at 10 μM: PC-3. It is filed as cell-based, human. Conditions: Prostate Cancer PC-3; 10 μM single dose; 48 hrs. The method, then: as §1, §2, §3, §4
A further data set deals with OVCAR-5. Description: NCI-60 screen at 10 μM: OVCAR-5. It is filed as cell-based, human. The note with it: Ovarian Cancer OVCAR-5; 10 μM single dose; 48 hrs. Here is the method: as §1, §2, §3, §4
For the next data set, the system named is ACHN. Description: NCI-60 screen at 10 μM: ACHN. Type of data set: cell-based, human. Conditions: Renal Cancer ACHN; 10 μM single dose; 48 hrs. The method, then: as §1, §2, §3, §4
For a further data set, the system named is LOX IMVI. Description: NCI-60 screen at 10 μM: LOX IMVI. Type of data set: cell-based, human. Conditions: Melanoma LOX IMVI; 10 μM single dose; 48 hrs. The method, then:
as §1, §2, §3, §4

The next data set has as its system HOP-62. Description: NCI-60 screen at 10 μM: HOP-62. It is filed as cell-based, human. Conditions: NSCLC HOP-62; 10 μM single dose; 48 hrs. Here is the method: as §1, §2, §3, §4
The test system of another data set is IGROV1. Description: NCI-60 screen at 10 μM: IGROV1. The note with it: Ovarian Cancer IGROV1; 10 μM single dose; 48 hrs. Type of data set: cell-based, human. Here is the method:
as §1, §2, §3, §4

Another data set deals with CCRF-CEM. Description: NCI-60 screen at 10 μM: CCRF-CEM. Conditions: Leukemia CCRF-CEM; 10 μM single dose; 48 hrs. It is filed as cell-based, human. The method, then:
as §1, §2, §3, §4

In another data set the test system is NCI-60 cell lines. Description: NCI-60 cell line panel screening of NL-101 (NSC#751447). Type of data set: cell-based, human.
A further data set deals with EKVX. Description: NCI-60 screen at 10 μM: EKVX. It is filed as cell-based, human. Conditions: NSCLC EKVX; 10 μM single dose; 48 hrs. The method, then: as §1, §2, §3, §4
A further data set has as its system SF-539. Description: NCI-60 screen at 10 μM: SF-539. The note with it: CNS Cancer (Glioma) SF-539; 10 μM single dose; 48 hrs. It is filed as cell-based, human. Here is the method: as §1, §2, §3, §4
A further data set deals with NCI-H522. Description: NCI-60 screen at 10 μM: NCI-H522. Type of data set: cell-based, human. The note with it: NSCLC NCI-H522; 10 μM single dose; 48 hrs. Here is the method:
as §1, §2, §3, §4

Molecules are shown by their SMILES.

hERG (Human Ether-á-go-go-Related-Gene), sequence (Q12809 whole entry): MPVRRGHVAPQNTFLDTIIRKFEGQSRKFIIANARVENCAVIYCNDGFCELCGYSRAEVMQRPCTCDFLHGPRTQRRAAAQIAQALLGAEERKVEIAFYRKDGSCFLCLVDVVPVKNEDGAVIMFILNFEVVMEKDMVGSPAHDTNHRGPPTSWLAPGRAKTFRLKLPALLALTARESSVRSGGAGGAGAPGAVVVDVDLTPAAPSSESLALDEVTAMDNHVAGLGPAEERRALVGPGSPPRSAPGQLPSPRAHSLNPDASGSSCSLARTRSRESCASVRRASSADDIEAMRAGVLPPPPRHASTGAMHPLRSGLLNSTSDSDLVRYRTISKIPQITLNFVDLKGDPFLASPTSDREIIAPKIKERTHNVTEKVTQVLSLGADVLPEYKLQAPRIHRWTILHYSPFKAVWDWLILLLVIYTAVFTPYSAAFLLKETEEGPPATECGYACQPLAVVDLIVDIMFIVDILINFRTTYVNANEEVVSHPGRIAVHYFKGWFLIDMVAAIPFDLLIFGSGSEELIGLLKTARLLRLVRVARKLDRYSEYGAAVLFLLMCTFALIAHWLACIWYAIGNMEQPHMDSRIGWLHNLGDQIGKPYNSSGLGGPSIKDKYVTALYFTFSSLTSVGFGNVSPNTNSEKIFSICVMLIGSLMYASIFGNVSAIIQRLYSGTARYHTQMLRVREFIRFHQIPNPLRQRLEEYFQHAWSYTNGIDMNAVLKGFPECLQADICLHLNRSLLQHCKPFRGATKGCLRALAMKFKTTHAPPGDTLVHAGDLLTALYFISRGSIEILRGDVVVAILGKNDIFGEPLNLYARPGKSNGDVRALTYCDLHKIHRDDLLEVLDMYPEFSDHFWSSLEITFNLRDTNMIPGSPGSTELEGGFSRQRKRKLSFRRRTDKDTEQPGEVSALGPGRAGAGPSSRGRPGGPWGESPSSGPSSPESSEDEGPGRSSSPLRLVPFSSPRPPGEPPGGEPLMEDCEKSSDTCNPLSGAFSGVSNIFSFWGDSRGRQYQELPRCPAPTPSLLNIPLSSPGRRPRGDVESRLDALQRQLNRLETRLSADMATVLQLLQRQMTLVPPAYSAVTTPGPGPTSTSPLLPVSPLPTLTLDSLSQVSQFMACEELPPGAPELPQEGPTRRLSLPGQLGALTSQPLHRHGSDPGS

Consider `Cn1c(CCNCc2ccc(/C=C/C(=O)NO)cc2)nc2cc(N(CCCl)CCCl)ccc21` [CY-102], for which the Growth % with NCI-H226 is recorded as −20.77%; with OVCAR-4, −19.00%; with NCI-H322M it was −15.30%; in the data set on PC-3, −1.86%; in the data set on OVCAR-5 it was −3.75%; with ACHN, −19.97%. For the same compound, the Growth % in the data set on LOX IMVI was −26.41%; in the data set on HOP-62, −30.02%; in the data set with IGROV1, −14.43%. The compound also returned a solubility at 1 min in the data set “Water solubility” of more than 20 mg/mL. In [1], the “fold less cardiotoxicity compared to NL-101 (hERG assay)” value is on record as 5-10 fold. Moreover, the IC50 in data set [2] (Hela nuclear extract, N/A* = No HDAC activity up to highest testing concentration of 10 μM) amounted to 0.0035 µM. In [2] (versus SAHA), the “fold more potent than SAHA in the HDAC (nuclear extract) assay” value is on record as “about 10 fold”.
`Cn1c(CCCCCCC(=O)NO)nc2cc(N(CCCl)CCCl)ccc21` [NL-101]: the Growth % with NCI-H226 is listed as 60.27%; in the data set with OVCAR-4, 68.52%; with NCI-H322M, 75.30%; in the data set with PC-3, 51.40%; in the data set on CCRF-CEM it was 17.16%; in the data set on OVCAR-5, 66.28%. The Growth % with ACHN is given as 14.30%; in the data set on EKVX, 92.48%; in the data set on SF-539 it was 23.72%; in the data set on LOX IMVI it was −23.43%; in the data set on HOP-62 it was 13.56%; in the data set on IGROV1, 55.99%. Further, in the data set on NCI-H522, the Growth % is on record as −5.90%. In addition, the IC50 with NCI-60 cell lines (Homo sapiens, on average, read-out: average cellular IC50 in the 60 cancer cell lines) was approximately 2 µM. Besides, in the data set on NCI-60 cell lines (versus Bendamustine), the “fold more potent than Bendamustine in the NCI-60 cell lines” value is recorded as 25-100 fold.

As a reminder, the solubility is how much of the substance goes into solution per volume. Read a high solubility as much dissolved substance. A word on the IC50: it is the concentration that gives 50% inhibition.
